Values after ≈ are worked out from the molar mass of the structure shown. Active and inactive are the calls of the source. The calls are words filed in the database; no cut-off is given here.
How the values were obtained:
[1] = test system: Escherichia coli; assay: Antibacterial activity against Escherichia coli KCTC 1682 after 24 hrs; assay type: functional; conditions: KCTC 1682, 24 h
[2] = test system: Pseudomonas aeruginosa; assay: Antibacterial activity against Pseudomonas aeruginosa KCTC 1637 after 24 hrs; assay type: functional; conditions: KCTC 1637, 24 h
[3] = test system: Salmonella typhimurium; assay: Antibacterial activity against Salmonella typhimurium KCTC 11926 after 24 hrs; assay type: functional, Salmonella enterica subsp. enterica serovar Typhimurium; conditions: Salmonella enterica, KCTC 11926, 24 h
[4] = test system: Staphylococcus epidermidis; assay: Antibacterial activity against Staphylococcus epidermidis KCTC 1917 after 24 hrs; assay type: functional; conditions: KCTC 1917, 24 h
[5] = test system: Staphylococcus aureus; assay: Antibacterial activity against Staphylococcus aureus KCTC 1621 after 24 hrs; assay type: functional; conditions: KCTC 1621, 24 h
[6] = test system: Erythrocyte; assay: Hemolytic activity in human RBC after 1 hr; assay type: ADME, cell-based
[7] = Therapeutic index, ratio of MHC10 for human RBC to MIC for Escherichia coli KCTC 1682; assay type: toxicity; conditions: red blood cells (RBC), pooled result: one value given for 6 cell lines, strains, targets or settings, read-out: TI
[8] = test system: RAW264.7; assay: Cytotoxicity against mouse RAW264.7 cells up to 128 uM after 48 hrs by MTT assay; assay type: cell-based; conditions: raw264.7, 48 h
[9] = test system: RAW264.7; assay: Anti-inflammatory activity in mouse RAW264.7 cells assessed as reduction in LPS-induced nitric oxide production at 10 to 20 uM after 24 hrs by Griess assay; assay type: functional, cell-based
[10] = test system: RAW264.7; assay: Anti-inflammatory activity in mouse RAW264.7 cells assessed as reduction in LPS-induced TNF-alpha production at 10 to 20 uM preincubated for 1 hr followed by LPS stimulation measured after 6 hrs by ELISA; assay type: functional, cell-based
[11] = test system: RAW264.7; assay: Anti-inflammatory activity in mouse RAW264.7 cells assessed as reduction in LPS-induced IL-6 production at 10 to 20 uM preincubated for 1 hr followed by LPS stimulation measured after 6 hrs by ELISA; assay type: functional, cell-based
[12] = test system: RAW264.7; assay: Anti-inflammatory activity in mouse RAW264.7 cells assessed as reduction in LPS-induced MCP-1 production at 10 to 20 uM preincubated for 1 hr followed by LPS stimulation measured after 6 hrs by ELISA; assay type: functional, cell-based
[13] = test system: RAW264.7; assay: Anti-inflammatory activity in mouse RAW264.7 cells assessed as reduction in LPS-induced iNOS mRNA expression at 5 uM after 6 hrs by RT-PCR analysis; assay type: functional, cell-based
[14] = test system: RAW264.7; assay: Anti-inflammatory activity in mouse RAW264.7 cells assessed as reduction in LPS-induced TNF-alpha mRNA expression at 10 uM after 3 hrs by RT-PCR analysis; assay type: functional, cell-based
[15] = test system: RAW264.7; assay: Anti-inflammatory activity in mouse RAW264.7 cells assessed as reduction in LPS-induced IL-6 mRNA expression at 10 uM after 3 hrs by RT-PCR analysis; assay type: functional, cell-based
[16] = test system: Staphylococcus aureus; assay: Antibacterial activity against methicillin resistant Staphylococcus aureus CCARM 3089 after 24 hrs; assay type: functional; conditions: CCARM 3089, 24 h
[17] = test system: Staphylococcus aureus; assay: Antibacterial activity against methicillin resistant Staphylococcus aureus CCARM 3090 after 24 hrs; assay type: functional; conditions: CCARM 3090, 24 h
[18] = test system: Staphylococcus aureus; assay: Antibacterial activity against methicillin resistant Staphylococcus aureus CCARM 3095 after 24 hrs; assay type: functional; conditions: CCARM 3095, 24 h
[19] = test system: Pseudomonas aeruginosa; assay: Antibacterial activity against multidrug-resistant Pseudomonas aeruginosa CCARM 2109 after 24 hrs; assay type: functional; conditions: CCARM 2109, 24 h
[20] = test system: Enterococcus faecium; assay: Antibacterial activity against Vancomycin-resistant Enterococcus faecium ATCC 51559 after 24 hrs; assay type: functional; conditions: ATCC 51559, 24 h
[21] = test system: Escherichia coli; assay: Antibacterial activity against Escherichia coli KCTC 1682 in presence of 150 mM NaCl after 24 hrs; assay type: functional; conditions: KCTC 1682, 24 h
[22] = test system: Escherichia coli; assay: Antibacterial activity against Escherichia coli KCTC 1682 in presence of 4.5 mM KCl after 24 hrs; assay type: functional; conditions: KCTC 1682, 24 h
[23] = test system: Escherichia coli; assay: Antibacterial activity against Escherichia coli KCTC 1682 in presence of 6 uM NH4Cl after 24 hrs; assay type: functional; conditions: KCTC 1682, 24 h
[24] = test system: Escherichia coli; assay: Antibacterial activity against Escherichia coli KCTC 1682 in presence of 1 mM MgCl2 after 24 hrs; assay type: functional; conditions: KCTC 1682, 24 h
[25] = test system: Escherichia coli; assay: Antibacterial activity against Escherichia coli KCTC 1682 in presence of 2.5 mM CaCl2 after 24 hrs; assay type: functional; conditions: KCTC 1682, 24 h
[26] = test system: Escherichia coli; assay: Antibacterial activity against Escherichia coli KCTC 1682 in presence of 20% human serum after 24 hrs; assay type: functional; conditions: KCTC 1682, 24 h
[27] = test system: Staphylococcus aureus; assay: Antibacterial activity against Staphylococcus aureus KCTC 1621 in presence of 6 uM NH4Cl after 24 hrs; assay type: functional; conditions: KCTC 1621, 24 h
[28] = test system: Staphylococcus aureus; assay: Antibacterial activity against Staphylococcus aureus KCTC 1621 in presence of 1 mM MgCl2 after 24 hrs; assay type: functional; conditions: KCTC 1621, 24 h
[29] = test system: Staphylococcus aureus; assay: Antibacterial activity against Staphylococcus aureus KCTC 1621 in presence of 20% human serum after 24 hrs; assay type: functional; conditions: KCTC 1621, 24 h
[30] = test system: Staphylococcus aureus; assay: Ratio of MIC for Staphylococcus aureus KCTC 1621 in presence of 20% human serum to MIC for Escherichia coli KCTC 1682 in presence of 20% human serum; assay type: functional
[31] = test system: Pseudomonas aeruginosa; assay: Antibiofilm activity against multidrug-resistant Pseudomonas aeruginosa CCARM 2095 after 24 hrs by crystal violet staining based assay; assay type: functional
[32] = test system: Pseudomonas aeruginosa; assay: Synergistic antibacterial activity against multidrug-resistant Pseudomonas aeruginosa CCARM 2095 after 72 hrs in presence of chloramphenicol by chequerboard assay; assay type: functional
[33] = test system: Pseudomonas aeruginosa; assay: Synergistic antibacterial activity against multidrug-resistant Pseudomonas aeruginosa CCARM 2095 after 72 hrs in presence of ciprofloxacin by chequerboard assay; assay type: functional
[34] = test system: Staphylococcus aureus; assay: Antibacterial activity against Staphylococcus aureus KCTC 1621 assessed as cell membrane disruption at 2 times MIC within 4 mins by Sytox Green dye based fluorescence spectrophotometer assay; assay type: functional, organism-based
[35] = test system: Staphylococcus aureus; assay: Antibacterial activity against Staphylococcus aureus KCTC 1621 assessed as cytoplasmic membrane depolarization at 2 times MIC by disC3-5 dye based fluorescence assay; assay type: functional, organism-based
[36] = test system: Staphylococcus aureus; assay: Potency index, ratio of LL-37 MIC to compound MIC for methicillin resistant Staphylococcus aureus CCARM 3089; assay type: functional
[37] = test system: Staphylococcus aureus; assay: Potency index, ratio of LL-37 MIC to compound MIC for methicillin resistant Staphylococcus aureus CCARM 3090; assay type: functional
[38] = test system: Staphylococcus aureus; assay: Potency index, ratio of LL-37 MIC to compound MIC for methicillin resistant Staphylococcus aureus CCARM 3095; assay type: functional
[39] = test system: Pseudomonas aeruginosa; assay: Potency index, ratio of LL-37 MIC to compound MIC for multidrug-resistant Pseudomonas aeruginosa CCARM 2109; assay type: functional
[40] = test system: Staphylococcus aureus; assay: Potency index, ratio of melittin MIC to compound MIC for methicillin resistant Staphylococcus aureus CCARM 3090; assay type: functional
[41] = test system: Staphylococcus aureus; assay: Potency index, ratio of melittin MIC to compound MIC for methicillin resistant Staphylococcus aureus CCARM 3095; assay type: functional
[42] = test system: Pseudomonas aeruginosa; assay: Potency index, ratio of melittin MIC to compound MIC for multidrug-resistant Pseudomonas aeruginosa CCARM 2095; assay type: functional
[43] = test system: Lipid bilayer; assay: Binding affinity to EYPE/EYPG small unilamellar vesicles assessed as intrinsic tryptophan acrylamide quenching constant by fluorescence assay (reference value: 5.95 to 7.56 /M)
[44] = Binding affinity to EYPC/cholesterol small unilamellar vesicles assessed as intrinsic tryptophan acrylamide quenching constant by fluorescence assay (reference value: 5.95 to 7.56 /M)

Question: With `CC[C@H](C)[C@H](NC(=O)[C@H](CC(C)C)NC(=O)[C@@H](CCCCN)NC(=O)[C@@H](NC(=O)[C@@H](NC(=O)[C@H](CCCNC(=N)N)NC(=O)[C@@H](N)CCCCN)[C@@H](C)CC)C(C)C)C(=O)N[C@@H](CC(C)C)C(=O)N[C@@H](CCCCN)C(=O)N[C@@H](Cc1c[nH]c2ccccc12)C(=O)N[C@@H](CC(C)C)C(=O)N[C@@H](CCCNC(=N)N)C(N)=O` as the compound, how does the MIC [1] read?
Answer: 4 µM (≈ 6.26 µg/mL)

Question: What about the MIC [2] of the same compound?
Answer: 8 µM (≈ 12.5 µg/mL)

Question: And the MIC [3]?
Answer: 2 µM (≈ 3.13 µg/mL)

Question: And the MIC [4]?
Answer: 4 µM (≈ 6.26 µg/mL)

Question: And the MIC [5]?
Answer: 2 µM (≈ 3.13 µg/mL)

Question: What about the MHC10 [6] of the same compound?
Answer: 79 µM

Question: And the selectivity ratio [7]?
Answer: 16.8

Question: What about the Activity [8] of the same compound?
Answer: Non-Toxic

Question: What about the Activity [9] of the same compound?
Answer: Active

Question: And the Activity [10]?
Answer: Active

Question: And the Activity [11]?
Answer: Active

Question: And the Activity [12]?
Answer: Active

Question: What about the Activity [13] of the same compound?
Answer: Active

Question: And the Activity [14]?
Answer: Active

Question: And the Activity [15]?
Answer: Active

Question: What about the MIC [16] of the same compound?
Answer: 4 µM (≈ 6.26 µg/mL)

Question: What about the MIC [17] of the same compound?
Answer: 4 µM (≈ 6.26 µg/mL)

Question: And the MIC [18]?
Answer: 4 µM (≈ 6.26 µg/mL)

Question: What about the MIC [19] of the same compound?
Answer: 4 µM (≈ 6.26 µg/mL)

Question: And the MIC [20]?
Answer: 4 µM (≈ 6.26 µg/mL)

Question: What about the MIC [21] of the same compound?
Answer: 4 µM

Question: And the MIC [22]?
Answer: 4 µM

Question: What about the MIC [23] of the same compound?
Answer: 4 µM

Question: What about the MIC [24] of the same compound?
Answer: 8 µM

Question: What about the MIC [25] of the same compound?
Answer: 8 µM

Question: What about the MIC [26] of the same compound?
Answer: 4 µM

Question: What about the MIC [27] of the same compound?
Answer: 2 µM

Question: And the MIC [28]?
Answer: 8 µM

Question: And the MIC [29]?
Answer: 16 µM

Question: What about the Ratio [30] of the same compound?
Answer: 2 - 8

Question: And the MBIC90 [31]?
Answer: 8 µM

Question: What about the “fractional inhibitory concentration index (FICI)” value [32] of the same compound?
Answer: 0.375

Question: What about the “fractional inhibitory concentration index (FICI)” value [33] of the same compound?
Answer: 0.5

Question: What about the Activity [34] of the same compound?
Answer: Active

Question: And the Activity [35]?
Answer: Active

Question: What about the Ratio [36] of the same compound?
Answer: 2 - 4

Question: What about the Ratio [37] of the same compound?
Answer: 2 - 4

Question: What about the Ratio [38] of the same compound?
Answer: 2 - 4

Question: What about the Ratio [39] of the same compound?
Answer: 2 - 4

Question: What about the Ratio [40] of the same compound?
Answer: 2 - 4

Question: What about the Ratio [41] of the same compound?
Answer: 2 - 4

Question: And the Ratio [42]?
Answer: 2 - 4

Question: And the KSV [43]?
Answer: 1.02 M⁻¹

Question: And the KSV [44]?
Answer: 2.21 M⁻¹
